The values below come from patent publication US4139526A, “Somatostatin analogs” (Merck & Co., Inc., priority 1977, dated 1979).

The test system of one assay is plasma insulin. Put plainly: Inhibition of insulin: lowering of portal vein plasma insulin in anesthetized rats. The assay is classed as in vivo, rats (male Sprague-Dawley). Conditions: somatostatin = 1; i.v. via external jugular vein, portal vein blood after 5 minutes; limits in parentheses. Here is the method:
(§1) The relative potencies of somatostatin analogs on the lowering of plasma insulin and glucagon are determined by the following method:
(§2) Analogs of somatostatin were compared to somatostatin in their ability to lower the levels of portal vein glucagon and insulin in anesthetized rats. Male Sprague-Dawley rats (Charles River CD) weighing 160-200 grams were anesthetized with urethane (150 mg./100 gm.) Saline or peptides were administered via the external jugular vein. After 5 minutes the portal vein was exposed and blood was collected via syringes containing 3 mg. EDTA and placed in chilled tubes containing 100 μl. of Trasylol (obtained from FBA Pharmaceuticals) for subsequent hormone analysis. Plasma levels of glucagon were determined by the method of Faloona, G. R., and Unger, R. H. "Glucagon" in Methods of Hormone Radioimmunoassay, eds. […] Plasma levels of insulin were determined by a modification of the procedure of Herbert, V., Lau, K. S. Gottlieb, C. […]
(§3) Doses were randomized between groups of animals (6 rats/group). Potency values were determined by four, six, or eight point bioassays with somatostatin as the reference standard. Relative potency values were calculated by a relative potency formula for parallel line bioassays as described in Finney, D. J. Statistical Method in Biological Assay (Charles Griffin and Co., Ltd., London) Chap. […]

The subject of the next assay is plasma glucagon. Put plainly: Inhibition of glucagon: lowering of portal vein plasma glucagon in anesthetized rats. Type of assay: in vivo, rats (male Sprague-Dawley). Conditions: somatostatin = 1; i.v. via external jugular vein, portal vein blood after 5 minutes; limits in parentheses. Here is the method: as §1, §2, §3
The subject of the next assay is growth hormone release. Put plainly: Inhibition of pentobarbital stimulated growth hormone release in vivo. Also on record: species or system rats. To be noted: somatostatin = 1; subcutaneous injection, blood after 15 minutes; limits in parentheses. Here is the method:
Somatostatin analogs were compared to somatostatin in their ability to inhibit the release of growth hormone in pentobarbital stimulated rats; a modification of the procedure of Brazeau et al. Endocrinology, 94, 184-187 (1974) was employed. Rats were lightly etherized and sodium pentobarbital (17 mg./Kg. was injected into the exposed Saphenous vein; somatostatin or analog was simultaneously injected subcutaneously. After 15 minutes the animals were bled via the orbital sinus and blood collected for subsequent growth hormone analysis.
(§4) Doses were randomized between groups of animals (6 rats/group). Potency values were determined by four, six, or eight point bioassays with somatostatin as the reference standard. Relative potency values were calculated by a relative potency formula for parallel line bioassays as described in Finney, D. J. Statistical Method in Biological Assay (Charles Griffin and Co., Ltd., London) Chap. 4 pp. 99-138 (1964).

The test system of a further assay is Rat pituicytes. Put plainly: Growth hormone inhibition in vitro. The assay is classed as cell-based. Conditions: somatostatin = 1, 4 hours incubation, limits in parentheses. On the procedure:
Rat pituicytes were isolated according to the procedures of Vale and Grant "In vitro Pituitary Hormone Secretion Assay for Hypophysiotropic Substances" in Methods in Enzymology. Vol. XXXVII, eds. O'Malley, B. W. and Hardman, J. G. (Academic Press, Inc., New York) pp. 5-93 (1975).
After 4 days in culture, the cells were washed and incubated for 4 hours in Dulbecco-modified Eagle's medium in the presence or absence of graded doses of each analog or somatostatin. The medium was then collected for subsequent growth hormone determination by a double antibody radioimmunoassay for rat growth hormone.
as §4

Assay [1] has as its system pentagastrin evoked gastric secretion. Put plainly: Pentagastrin evoked gastric secretion in chronic fistula beagle dogs. To be noted: 0.8 γ/kg./min. infused 0-60 min. The assay is classed as in vivo. Here is the method:
The effect of somatostatin and its analogs on gastric secretion were determined by the following method:
Compounds were tested for their ability to inhibit pentagastrin evoked gastric secretion in the chronic fistula dog. Female beagle dogs with a chronic gastric fistula were given pentagastrin (2.5 μg./kg./hour, i.v. from -60 to 120 min.) and gastric outputs were collected via the fistula cannula. Samples were analyzed at 30 minute intervals for volume (ml.) and titratable acid (mEq/L) (titration […] with 0.01N NaOH); total acid output (mEq) was calculated as the product of output volume and acid concentration. Test compounds were infused at a constant rate from 0 to 60 minutes. Data have been expressed as percent change of total acid output relative to a placebo trial in the same animals.

On to `C[C@H](N)C(=O)NCC(=O)N[C@H]1CSSC[C@@H](C(=O)O)NC(=O)[C@H](CO)NC(=O)[C@H]([C@@H](C)O)NC(=O)[C@H](Cc2ccccc2)NC(=O)[C@H]([C@@H](C)O)NC(=O)[C@H](CCCCN)NC(=O)[C@H](Cc2c[nH]c3ccccc23)NC(=O)[C@H](Cc2ccccc2)NC(=O)[C@H](Cc2ccccc2)NC(=O)[C@H](CC(N)=O)NC(=O)[C@H](CCCCN)NC1=O` [(I), Somatostatin], for which, in the assay on plasma insulin, the “Inhibition of Insulin, potency relative to somatostatin” value amounted to 1. Further, the “Inhibition of Glucagon, potency relative to somatostatin” value in the assay on plasma glucagon is 1. The “Inhibition of Pentobarbital Stimulated Growth Hormone Release In Vivo, potency relative to somatostatin” value in the assay with growth hormone release was determined as 1. Further, the “Growth Hormone Inhibition In Vitro, potency relative to somatostatin” value in the assay with Rat pituicytes turned out to be 1. In assay [1] (sample 0-30 min, during treatment), the “Titratable acid, percent change, during 0-30” value is -16%. The “Total acid output, percent change, during 0-30” value in assay [1] (sample 0-30 min, during treatment, relative to placebo trial in the same animals) is -89%. Besides, the “Titratable acid, percent change, during 30-60” value in assay [1] (sample 30-60 min, during treatment) is -17%. Further, in assay [1] (sample 30-60 min, during treatment, relative to placebo trial in the same animals), the “Total acid output, percent change, during 30-60” value is recorded as -99%. The “Titratable acid, percent change, post-treat 60-90” value in assay [1] (sample 60-90 min, post-treatment) is -61%. Besides, in assay [1] (sample 60-90 min, post-treatment, relative to placebo trial in the same animals), the “Total acid output, percent change, post-treat 60-90” value was -93%. The “Titratable acid, percent change, post-treat 90-120” value in assay [1] (sample 90-120 min, post-treatment) is recorded as -41%. Also, in assay [1] (sample 90-120 min, post-treatment, relative to placebo trial in the same animals), the “Total acid output, percent change, post-treat 90-120” value is -45%.
